We go through four compounds from patent US20080038245A1, “Methods of modulating angiogenesis” (priority 2001, published 2008).

In experiment [1] the test system is BREC. The note with it: VEGF 0.6 nM, sentence cites ref. (2); cited from earlier work.
Experiment [2] deals with BREC. Nature of the experiment: Cell migration assay (modified Boyden chamber). Format: cell-based, bovine. To be noted: VEGF 0.6 nM. The protocol:
Primary cultures of bovine retinal endothelial cells (BREC) were isolated and cultured as described (17). […] A modified Boyden chamber migration assay was performed by using BREC (25). The top and bottom surface of the chamber membrane was coated with collagen I. […] Cells that migrated to the bottom of the chamber were enumerated by counting SYTOX green (Molecular Probes) nucleic acid-stained cells.

A further experiment concerns Rb. As to the kind of experiment: Rb phosphorylation in BREC (phospho-specific antibodies). It is filed as cell-based, bovine. The note with it: time-dependent, all sites (S249/T242, S780, S795, S807/S811, S821).
Experiment [3] has as its system BREC. Nature of the experiment: Cell growth assay (DNA content, VEGF-induced proliferation). Format: cell-based, bovine. To be noted: VEGF 0.6 nM, after 4 days. The protocol:
Primary cultures of bovine retinal endothelial cells (BREC) were isolated and cultured as described (17). Only cells from passages 2-7 were used for the experiments.
BREC were plated onto 12-well culture plates and incubated overnight in DMEM containing 10% calf serum, after which the cells were infected with adenovirus (23). After incubation for 4 days at 37° C. with or without VEGF (0.6 nM), the cells were lysed in 0.1% SDS, and the DNA content was measured by means of Hoechst-33258 dye and a fluorometer (model TKO-100, Hoefer). E2 promoter binding factor (E2F) decoys were used as described (24).

A further experiment relates to PKCβ2 and Rb. Nature of the experiment: Association of PKCβ2 with Rb in BREC (immunoprecipitation / immunoblot). It is filed as cell-based, bovine. For orientation: Immunoblotting shows a protein as a band on a membrane.
The test system of a further experiment is E2F. As to the kind of experiment: E2F luciferase assay in BREC. It is filed as cell-based, bovine. As for the experimental part:
Luciferase reporter constructs (Mercury Cell Cycle Profiling System, CLONTECH) were introduced into cells with LipofectAMINE reagent (Life Technologies, Rockville, Md.) as instructed by the manufacturer. Luciferase activity was measured by using the Dual-Luciferase Reporter Assay system (Promega).

Consider `CN(C)CCCn1cc(C2=C(c3c[nH]c4ccccc34)C(=O)NC2=O)c2ccccc21` [GFX], for which the “effect on VEGF's mitogenic activity” value in the experiment on BREC [1] is reported as “blocked VEGF's mitogenic activity completely”. The “effect on VEGF-increased BREC migration” value with BREC [2] is given as “inhibited”.

With `COc1cccc(-c2cc(=O)c3ccccc3o2)c1N` [PD98059], in the experiment with BREC [1], the “effect on VEGF's mitogenic activity” value is given as “blocked VEGF's mitogenic activity completely”. Also, the “effect on VEGF-increased BREC migration” value in the experiment with BREC [2] is recorded as “inhibited”.

On to `COC[C@H]1OC(=O)c2coc3c2[C@@]1(C)C1=C(C3=O)[C@@H]2CCC(=O)[C@@]2(C)C[C@H]1OC(C)=O` [wortmannin], for which the “inhibition of VEGF-induced BREC migration” value in the experiment with BREC [2] is given as 41%.

In the case of VEGF, the “increase of phosphorylation of Rb” value in the experiment on Rb was “up to 3 fold”. Moreover, in the experiment with BREC [3], the “increase in BREC total DNA content” value is given as 2 fold. The “increase of migration of BREC” value with BREC [2] is on record as 2 fold. Besides, the “increase of phosphorylated Rb levels (pS780) in PKCβ2-Rb complex” value with PKCβ2 and Rb (VEGF 0.6 nM, overexpression of PKCβ2) is on record as 2- to 3 fold. Also, the “increase of amount of PKCβ2-associated Rb protein” value in the experiment on PKCβ2 and Rb (VEGF 0.6 nM, immunoprecipitation with antibodies to Rb, immunoblot PKCβ2) was found to be 1.7 fold. Besides, the “increase of association of PKCβ2 with Rb” value in the experiment on PKCβ2 and Rb (immunoprecipitation with anti-PKCβ2 antibody, Rb immunoblot) amounted to 2.2 fold. Besides, in the experiment on E2F, the “increase of E2F activity” value stood at 8.6 fold.
